# Measured values reported in patent publication US20250145715A1, “B7-H3 TARGETING FUSION PROTEINS AND METHODS OF USE THEREOF” (GT Biopharma, Inc., priority 2021, published 2025).
# “Also recorded” adds a separate entry of the source.
# Tests used:
# T cells (CD56−CD3+) = assay: T cell proliferation in PBMCs, CellTrace Violet dilution; format: cell-based, human; details: 7 days
# Procedure: FIGS. 2A-2H illustrates that cam1615B7-H3 TriKE induces potent, and specific, natural killer (NK) cell proliferation. Peripheral blood mononuclear cells (PBMCs) were CellTrace Violet labeled and incubated for seven days at 5 nM equimolar concentrations of rhIL-15 or cam1615B7-H3 TriKE. On day 7, the cells were harvested and stained for flow cytometric evaluation. […] FIG. 2B is a graph illustrating pooled data showing the overall proportion of NK cells that proliferated. FIG. 2C is a graph illustrating pooled data showing the proportion of NK cells that highly proliferated (measured as proliferation beyond three divisions). FIG. 2D is a graph illustrating pooled data showing NK cell counts in the cultures (N=9). FIG. 2E is a representative histogram showing T cell (CD56− CD3+) proliferation. FIG. 2F is a graph illustrating pooled data showing the overall proportion of T cells proliferated. FIG. 2G is a graph illustrating pooled data showing the proportion of T cells highly proliferated. FIG. 2H is a graph illustrating pooled data showing T cell counts in the cultures (N=9). * p<0.05, ** p<0.01, *** p<0.001.
# The wild-type IL-15 moiety in the cam1615B7-H3 TriKE was designed to induce targeted delivery of a proliferative signal to NK cells. To test this, proliferation assays evaluating dilution of a CellTrace dye over a 7-day period were carried out on PBMCs treated with no treatment (NT), monomeric rhIL-15 (IL15), or the TriKE (cam1615B7-H3). At the end of the seven days, cells were harvested and proliferation was evaluated by gating on CD56+CD3− cells. […] Since IL-15 acts on both NK cells and T cells, specificity was evaluated next by gating on T cells (CD56-CD3+).
# To measure the ability of the TriKE to specifically induce NK cell expansion via the IL-15 moiety, PBMCs from healthy donors were labeled with CellTrace Violet Proliferation Dye (Invitrogen, Carlsbad, CA, USA) according to kit specifications. After staining, cells were cultured with TriKEs at noted concentrations, or equimolar concentrations of controls, and incubated in a humidified atmosphere containing 5% CO2 at 37° C. for seven days. Cells were harvested, stained for viability with Live/Dead reagent (Invitrogen, Carlsbad, CA, USA) and surface stained for anti-CD56 PE/Cy7 (Biolegend, San Diego, CA, USA) and anti-CD3 PE-CF594 (BD Biosciences, Franklin Lakes, NJ, USA) to gate on the viable CD56+ CD3− NK cell population or the CD56-CD3+ T cell population. Data analysis was performed using FlowJo software (FlowJo LCC, version 7.6.5, Ashland, OR, USA).
# [1] = tested on: normal immune cells (PBMCs); assay: Background NK cell activity in PBMCs without tumor targets; format: cell-based, human
# Procedure: ADCC was measured in a flow cytometry assay by evaluating degranulation via CD107a (lysosomal-associated membrane protein LAMP-1) and intracellular IFNγ production. Upon thawing, normal donor and patient-derived PBMCs or ascites cells were rested overnight (37° C., 5% CO2) in RPMI 1640 media supplemented with 10% fetal calf serum (RPMI-10). The next morning, they were suspended with tumor-target cells or media after washing twice with RPMI-10. Cells were then incubated with TriKEs or controls for 10 min at 37° C. Fluorescein isothiocyate (FITC)-conjugated anti-human CD107a monoclonal antibody (BD Biosciences, San Jose, CA, USA) was then added. […] Samples were washed and evaluated in an LSRII flow cytometer (BD Biosciences, San Jose, CA, USA).
# The ability of cam1615B7-H3 TriKE to mediate NK cell activity against ovarian cancer cells was evaluated. […] In order to determine if the individual components of the TriKE could induce NK cell activity on their own, the individual cam16 VHH, IL-15, or anti-B7-H3 scFv components were incubated with PBMCs and OVCAR8 cells and activity was determined. […] NK cell activity, from normal donor PBMCs and ascites from the peritoneal cavity of ovarian cancer patients at the time of surgery, was assessed against MA-148 cells, another high-grade serous ovarian adenocarcinoma cell line (FIGS. 29A-29B and 30G-30H). […]
substance,measurement,setting,value
"cam1615B7-H3: second-generation TriKE: humanized camelid anti-CD16 VHH, human wild-type IL-15, anti-B7-H3 mAb 376.96 scFv; SEQ ID NO:1",overall T cell proliferation,"T cells (CD56−CD3+); 5 nM equimolar, listed as cam1615B7-H3 TriKE",Minimal T cell proliferation; also recorded: some induction of overall T cell proliferation
same,T cell numbers in culture,"T cells (CD56−CD3+); 5 nM, vs untreated",did not differ between the untreated and TriKE-treated groups
same,T cells robustly proliferating (past three divisions),"T cells (CD56−CD3+); 5 nM, vs untreated",significantly less proliferation than the untreated group
same,background NK cell IFNγ,[1],No background noise
same,background NK cell degranulation (CD107a),[1],"some background degranulation (CD107a) on NK cells in comparison to controls, but this activity was low"
